Reference: PMC4399250, “Characterization of HIV-1 entry inhibitors with broad activity against R5 and X4 viral strains” (Journal of Translational Medicine, 2015)
Where two headings read alike, the source gives them in different places.

What was measured:
[1] = system: HIV-1 BaL (R5); assay: HIV-1 acute infection of PHA-activated PBMC, p24 ELISA, BaL strain; format: cell-based; settings: for effect on R5 HIV-1 replication (in words): p24 day 7, concentrations tested up to 30 μM for the six compounds
[2] = system: HIV-1 IIIB (X4); assay: HIV-1 acute infection of PHA-activated PBMC, p24 ELISA, IIIB strain; format: cell-based; settings: for effect on X4 HIV-1 replication (in words): p24 day 7, concentrations tested up to 30 μM for the six compounds
[3] = system: PBMC; assay: MTT cytotoxicity assay on PBMC; format: cell-based, human; settings: infected PBMC
Procedure: PBMC and TZM-bl viability was measured by the MTT [3-(4,5- dimethylthiazol-2-yl)-2,5-diphenyl tetrazolium bromide; Sigma] assay. Cells were seeded in 96-well plates in three replicates and were incubated for four (TZM-bl) or six (PBMC) days with different concentrations of the compounds or DMSO alone at 0.2% as control. Then 10μl of complete medium containing MTT (0.5 mg/ml) was added to each well. After 24h incubation at 37°C, the supernatant was removed and 200μl of ethanol was added to each well to solubilize the formazan crystals. After vigorous shaking, absorbance was measured in a microplate reader at 490 nm.

[4] = system: HIV-1 IIIB (X4); format: cell-based
[5] = system: HIV-1 BaL (R5); assay: HIV-1 fusion assay, PM1-BaL donor and TZM-bl target cells; format: cell-based; settings: PM1-BaL donor, TZM-bl target, 2.5% FCS
[6] = target: CXCR4 (Homo sapiens, UniProt P61073); assay: Flow cytometry competition with anti CXCR4 moAbs; format: binding; settings: PM1 cells; ND-4043 30, 10, 3 μM; AMD3100 3, 0.3, 0.03 μM
Chain of CXCR4 (P61073 whole entry): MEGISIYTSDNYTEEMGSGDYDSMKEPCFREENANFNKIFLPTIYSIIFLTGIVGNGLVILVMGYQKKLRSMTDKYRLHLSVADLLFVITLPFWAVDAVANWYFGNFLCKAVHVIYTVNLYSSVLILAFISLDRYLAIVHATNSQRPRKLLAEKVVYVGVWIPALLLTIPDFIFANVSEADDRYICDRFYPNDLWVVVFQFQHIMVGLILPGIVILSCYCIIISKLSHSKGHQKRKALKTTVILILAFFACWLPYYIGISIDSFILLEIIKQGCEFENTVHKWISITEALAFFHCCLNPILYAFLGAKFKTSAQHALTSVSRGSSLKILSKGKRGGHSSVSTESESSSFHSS

[7] = system: influenza A virus; assay: Influenza virus-like particle entry assay in MDCK cells; format: cell-based; settings: three concentrations, bafilomycin 100 nM
[8] = BaL (R5), infected PBMC, p24 day 7
[9] = IIIB (X4), infected PBMC, p24 day 7

With `Cn1cc(NC(=O)c2cc(NC(=O)c3cc(NC=O)cn3C)cn2C)cc1C(=O)NCCC(=N)N` [compound 4044, distamycin] the IC50 [1, 8] was > 30 µM, the IC75 [1, 8] was >30 µM and the IC90 [1, 8] was > 30 µM. For the same compound, the “effect on R5 HIV-1 replication (in words)” value ([1]; PBMC) was “not effective”, the IC50 [2, 9] was > 30 µM and the IC75 [2, 9] was >30 µM. The IC90 [2, 9] was > 30 µM, the “effect on X4 HIV-1 replication (in words)” value ([2]; PBMC) was “not effective” and the CC50 ([3]; table section BaL (R5)) was 25 µM. The CC50 ([3]; table section IIIB (X4)) was 30 µM, the “effect on X4-mediated fusion (in words)” value ([4]; SupT1-IIIB donor, TZM-bl target, 2.5% FCS) was “did not affect” and the “effect on R5-mediated fusion (in words)” value [5] was “did not affect”.
Maraviroc was tested, and the “concentration inhibiting R5 HIV-1 replication” value ([1]; PBMC, p24 day 7, ten fold dilutions, complete blockade for maraviroc) was 0.1 µM, the “activity relative to ND-4043 on R5 inhibition” value ([1]; side-by-side comparison) was “approximately 100 fold” and the “effect on X4 HIV-1 replication (in words)” value ([2]; PBMC) was “no effect”. The “effect on R5-mediated fusion (in words)” value [5] was “selectively blocked entry”.
`c1cc(CN2CCCNCCNCCCNCC2)ccc1CN1CCCNCCNCCCNCC1` [AMD3100] was tested, and the “effect on binding of four anti-CXCR4 moAbs” value [6] was “inhibited binding of the four moAbs in a concentration-dependent manner”, the “effect on R5 HIV-1 replication (in words)” value ([1]; PBMC) was “no effect” and the “concentration inhibiting X4 HIV-1 replication” value ([2]; PBMC, p24 day 7, ten fold dilutions, complete inhibition for AMD3100) was 0.01 µM. For the same compound, the “activity relative to ND-4043 on X4 inhibition” value ([2]; side-by-side comparison) was “approximately 100 fold” and the “effect on X4-mediated fusion (in words)” value [4] was “selectively blocked entry”.
For `CO/C1=C\C(C)=C\[C@@H](C)[C@@H](O)[C@@H](C)C/C(C)=C/C=C/[C@H](OC)[C@@H]([C@@H](C)[C@@H](O)[C@H](C)[C@@]2(O)C[C@@H](O)[C@H](C)[C@@H](C(C)C)O2)OC1=O` [bafilomycin A1], the “effect on influenza A virus entry” value [7] was “inhibited viral entry significantly”.
